Common to all, as to type: functional
Experiment [1] has as its system Mycolicibacterium smegmatis. Nature of the experiment: Growth inhibition of Mycobacterium smegmatis.
Experiment [2] relates to Mycolicibacterium aurum. Nature of the experiment: Growth inhibition of multidrug resistance Mycobacterium aurum.
Experiment [3] has as its system Mycobacterium tuberculosis. Put plainly: Growth inhibition of Mycobacterium tuberculosis H37 by radiometric BACTEC 460 assay.

In brackets after ≈: the same amount, converted by molar mass.

As usually defined, the MIC is the least concentration at which growth counts as inhibited. Higher therefore signals a need for much substance. Turning to `CC1CCc2c(sc(N)c2C(N)=O)C1` (configuration not stated), the minimal inhibitory concentration (MIC) in experiment [1] was over 32 µg/mL.

Consider `CCCC1CCc2c(sc(N)c2C(N)=O)C1` (configuration not stated), for which the lowest concentration to inhibit growth in experiment [1] (MIC) was 64 µg/mL (≈ 269 µM). Molecule `[N-]=[N+]=NC[C@H]1O[C@H](O[C@H]2O[C@H](CO)[C@@H](O)[C@H](O)[C@H]2O)[C@H](O)[C@@H](O)[C@@H]1O` came in with a minimal inhibitory concentration (MIC) in experiment [2] of 200 µg/mL (≈ 544 µM). Regarding `N#Cc1c(N)sc2c1CCCCC2`, the MIC in experiment [3] is over 500 µg/mL; in experiment [1], 64 µg/mL (≈ 333 µM). For the molecule `CCC1CCc2c(sc(N)c2C#N)C1` (configuration not stated), the MIC was determined as 50 µg/mL (≈ 242 µM) in experiment [3] and 32 µg/mL (≈ 155 µM) in experiment [1].

For the molecule `CCCC1CCc2c(sc(N)c2C#N)C1` (configuration not stated), the minimal inhibitory concentration (MIC) in experiment [3] was 50 µg/mL (≈ 227 µM); in experiment [1], 16 µg/mL (≈ 72.6 µM). As for `CCC1CCc2c(sc(N)c2C(N)=O)C1` (configuration not stated), in experiment [1], it took 64 µg/mL (≈ 285 µM) to inhibit growth (MIC).

As to `CCCOc1ccc2nc(N)sc2c1`, the values for the MIC in experiment [3] and in experiment [1] were 20 µg/mL (≈ 96 µM) and 32 µg/mL (≈ 154 µM), respectively.

The values are drawn from ChEMBL document CHEMBL1629535, “Novel small molecule inhibitors of MDR Mycobacterium tuberculosis by NMR fragment screening of antigen 85C” (2010).
